Experimental data from patent publication US12403184B2, “Compositions and methods for treating neurodegenerative disroders” (priority 2018, dated 2025).
Where no end group is shown, it is not given here.

Assays:
Drp1 [1] = experiment: Drp1 mitochondrial level and Drp1 oligomerization in striatum of treated HD mice; format: in vivo, mouse; conditions: for Drp1 translocation to the mitochondria: 1 mg/kg/day
Method: Cells were washed with cold phosphate-buffered saline (PBS) and incubated on ice in mitochondrial lysis buffer (250 mM sucrose, 20 mM HEPES-NaOH, pH 7.5, 10 mM KCl, 1.5 mM MgCl2, 1 mM EDTA, 1 mM EGTA, protease inhibitor cocktail, and phosphatase inhibitor cocktail) for 30 min. The cells were scraped and then disrupted 15 times by repeated aspiration through a 25-gauge needle. Mouse brains were minced and homogenized in mitochondrial lysis buffer to release mitochondria. The homogenates were spun at 800×g for 10 min at 4° C., and the resulting supernatants were spun at 12,000×g for 20 min at 4° C. The pellets were washed with lysis buffer and spun at 12,000×g again for 20 min at 4° C. The final pellets were suspended in lysis buffer containing 1% Triton X-100 and were mitochondrial-rich lysate fractions. The mitochondrial protein voltage-dependent anion channel (VDAC) was used as a loading control.
Protein concentration was measured by protein assay dye reagents (Bio-rad). The protein was resuspended in Laemmli buffer, loaded on SDS-PAGE, and transferred onto nitrocellulose membranes. Membranes were probed with the indicated antibodies, followed by visualization with ECL. Representative blots have been cropped for presentation.
(§1) Systemic peptide treatment in HD mice. All randomization and peptide treatments were prepared by an experimenter not associated with behavioral and neuropathology analysis. Male R6/2 mice (Tg) and their age-matched wild-type littermates (Wt) (6-week-old) were implanted with a 28-day osmotic pump (Alzet, Cupertino CA, Model 2004) containing TAT control peptide or DA1 peptide, which delivered peptides at a rate of 1 mg/kg/day. Male YAC128 mice (Tg) and their age-matched wild-type littermates (WT) were treated with TAT control peptide or DA1 peptide (1 mg/kg/day) by Alzet osmotic pump starting from the age of 3 months. The pump was replaced once every month.

Drp1 [2] = target: Drp1 (Homo sapiens, UniProt O00429); experiment: Drp1 GTP hydrolysis in vitro; format: biochemical
Chain of Drp1 (Homo sapiens, UniProt O00429) (O00429 whole entry): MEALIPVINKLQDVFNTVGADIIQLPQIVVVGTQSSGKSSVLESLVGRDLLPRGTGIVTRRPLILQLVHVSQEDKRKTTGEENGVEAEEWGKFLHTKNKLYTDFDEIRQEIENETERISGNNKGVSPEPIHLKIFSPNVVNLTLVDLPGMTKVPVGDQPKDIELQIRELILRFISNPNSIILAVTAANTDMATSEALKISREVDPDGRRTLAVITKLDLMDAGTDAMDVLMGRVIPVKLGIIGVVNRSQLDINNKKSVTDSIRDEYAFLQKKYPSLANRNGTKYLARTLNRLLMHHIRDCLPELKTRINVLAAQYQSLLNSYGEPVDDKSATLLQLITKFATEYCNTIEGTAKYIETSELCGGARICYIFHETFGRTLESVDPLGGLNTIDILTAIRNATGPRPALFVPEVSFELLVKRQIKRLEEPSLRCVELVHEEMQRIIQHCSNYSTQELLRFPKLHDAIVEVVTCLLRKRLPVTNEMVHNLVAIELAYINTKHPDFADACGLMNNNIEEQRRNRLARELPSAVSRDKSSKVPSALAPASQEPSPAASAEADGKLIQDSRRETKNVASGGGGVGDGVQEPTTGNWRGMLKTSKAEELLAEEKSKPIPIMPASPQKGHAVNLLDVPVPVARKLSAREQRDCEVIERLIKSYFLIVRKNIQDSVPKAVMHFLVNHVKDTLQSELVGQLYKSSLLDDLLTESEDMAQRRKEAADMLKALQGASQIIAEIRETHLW
Text: Drp1 GTP hydrolysis was monitored as a function of time as described previously.

HdhQ111 cells = experiment: Mitochondrial superoxide production (MitoSOX) in striatal cells; format: cell-based, mouse; conditions: relative to TAT
Method: To examine mitochondrial superoxide production, the cells were stained with MitoSOX (Invitrogen, 5 μM for 10 min) at 37° C. The cells were then washed with PBS three times and mounted for the image analysis. At least 150 cells/group were counted and quantitated.

mtDNA = mtDNA content in plasma of YAC128 mice by qPCR; format: in vivo, mouse; conditions: YAC128 mice at the age of 6 months
Method: For isolation of DNA from mouse plasma, the QIAamp DNA Blood Mini Kit (QIAGEN) was used. Briefly, 100-200 μl mouse plasma was subjected to total DNA extraction. Then the eluted DNA was diluted (1:5) to perform the qPCR experiment.

[3] = test system: neurons derived from HD patient-iPS cells; experiment: Mitochondrial and neuronal morphology in neurons derived from iPS cells; format: cell-based, human
Method: iPS cells from a normal subject and a HD patient (carrying 41 CAG repeats) were differentiated into neurons using the protocol from our previous studies. Briefly, the iPS cells were plated onto 6-well plates precoated with 2.5% Matrigel and allowed to reach 90% confluence in feeder-free medium. For the first 10 days, the cells were treated with SB431542 (10 μM; Tocris Bioscience) and Noggin (100 ng/ml) in Neural Media (NM) containing Neurobasal and DMEM (1:1), B-27 supplement minus vitamin A (50×, Invitrogen), N2 supplement (100×, Invitrogen), GlutaMax (Invitrogen, 100×), FGF2 ([…]) and EGF ([…]), and 100 units/ml penicillin and 100 μg/ml streptomycin). For the next 10 days, the cells were treated with human recombinant Sonic hedgehog (SHH, 200 ng/ml), DKK1 (100 ng/ml) and BDNF (20 ng/ml), and 10 μM Y27632 (Sigma) in neuronal differentiation medium containing Neurobasal and DMEM (1:3), B27, N2, GlutaMax, and PS. Cells were then switched to treatment with BDNF (20 ng/ml), ascorbic acid (200 μM, Sigma-Aldrich), cAMP (0.5 mM, Sigma-Aldrich), and Y27632 (10 μM) in neuronal differentiation medium. All growth factors were purchased from PeproTech (Rocky Hill, NJ, USA). Twenty days after the initiation of differentiation, the neurons (about 5000 cells) were plated onto 12-mm poly-Dlysine/laminine-coated coverslips and grown in 24-well plates in neuronal differentiation medium.
Neurons derived from iPS cells were stained with anti-Tom20 (a mitochondrial marker) and anti-GAD67 (a striatal neuronal marker). Quantitation of mitochondrial length along the neurites was conducted only in the neurons immuno-positive for GAD67. To analyze dendrite and axon outgrowth of neurons, cells were stained with anti-MAP2 (a dendritic marker) and anti-GAD67 or anti-Tau (an axonal marker) and anti-DARPP32 (a medium spiny neuron marker). The length of MAP2+ dendrite and Tau+ axon in the neurons immuno-positive for GAD67 or DARPP32 was quantitated, respectively. At least 50 neurons/group were counted.

HD R6/2 mice = experiment: Body weight, survival and behavior in HD R6/2 mice; format: in vivo, mouse
Method: Male R6/2 mice and their wild-type (WT) littermates (5 weeks old) were purchased from Jackson Laboratories [Bar Harbor, ME; B6CBA-TgN (HD exon1) 62; JAX stock number: 006494]. These mice (C57BL/6 and CBA genetic background) are transgenic for the 5′ end of the human HD gene carrying 100-150 glutamine (CAG) repeats.
as §1
Gross locomotor activity was assessed in R6/2 mice and age-matched wild-type littermates at the ages of 12 weeks, and in YAC128 mice and age-matched wildtype littermates at the ages of 2, 3, 6, 9, and 12 months. The mice were placed in the center of an activity chamber (Omnitech Electronics, Inc) and allowed to explore while being tracked by an automated beam system (Vertax, Omnitech Electronics Inc). Distance moved, horizontal and vertical activities were recorded. In R6/2 mice and wildtype littermates, one-hour locomotor activity was conducted. In YAC128 mice and wildtype littermates, 24 h of locomotor activity analysis was performed.
Hindlimb clasping was assessed with the tail suspension test once a week from the ages 8 to 12 weeks in R6/2 mice. The mice were suspended by the tail for 60 s, and the latency for the hindlimbs or all four paws to clasp was recorded using the score system: Clasping over 10 s, score 3; 5-10 s, score 2; 0-5 s, score 1; and 0 s, score 0.
The body weight and survival rate of HD mice and wild-type littermates were recorded throughout the study period.

[4] = striatal neurons derived from HD patient iPS cells
[5] = R6/2 mice at the age of 12 weeks

YGRKKRRQRRRGGEDKRKT-NH2 [DA1, YGRKKRRQRRR-GG-EDKRKT-NH2]
Drp1 translocation to the mitochondria (Drp1 [1]; striatum of HD R6/2 mice): abrogated
Drp1 polymerization (Drp1 [1]; striatum of HD R6/2 mice, 12 weeks old): abrogated
Drp1 translocation to the mitochondria (Drp1 [1]; striatum of HD YAC128 mice): abrogated
Drp1 polymerization (Drp1 [1]; striatum of HD YAC128 mice, 12 months old): abrogated
Drp1 oligomerization-induced GTPase activity (Drp1 [2]): no effects
mitochondrial oxidative stress (mitoROS) (HdhQ111 cells): suppressed
increase of plasma mtDNA content (mtDNA): abolished
mitochondrial morphology ([3]; cells derived from iPS cells of normal subject): no observed effects
length of mitochondria along the neurites of GAD67+-neurons ([3]; neurons derived from HD patient-iPS cells): increased
MAP2+ dendritic outgrowth [3, 4]: improved
Tau+ axonal outgrowth [3, 4]: improved
body weight loss (HD R6/2 mice; HD R6/2 mice, 1 mg/kg/day from 6 weeks, vs TAT): moderately suppressed
survival (HD R6/2 mice; HD R6/2 mice, age 6 to 21 weeks, 1 mg/kg/day): greatly prolonged
horizontal activity (HD R6/2 mice; [5]): increased
total traveled distance (HD R6/2 mice; [5]): increased
severity of clasping behavior (HD R6/2 mice; R6/2 mice, four-week observation period): reduced
